Experimental data published in publication PMC11209699 (ACS Omega, 2024).
Values joined by “and” are separate entries in the source; they are usually repeats but may differ in a detail not shown here. Identical values can stand only once. “Also recorded” adds a separate entry of the source.

Columns and labels:
[1] = molecular target: MCL-1 (Homo sapiens, UniProt Q07820); assay: fluorescence polarization; conditions: for binding to MCL-1 (in words): tested up to 100 μM
[2] = tested on: H929 cells; assay: CCK-8 cell viability; assay type: cell-based; conditions: Homo sapiens, NCI-H929, 48 h, read-out: cytotoxicity (IC50) H929
[3] = tested on: MV-4–11 cells; assay: CCK-8 cell viability; assay type: cell-based; conditions: Homo sapiens, MV4-11, 48 h, read-out: cytotoxicity (IC50) MV-4–11
[4] = CCK-8 cell viability; assay type: cell-based; conditions: human, HEK293T cells
[5] = tested on: MV-4–11 cells; assay: annexin V and PI double-staining flow cytometry; assay type: cell-based; conditions: 24 h
[6] = tested on: MV-4–11 xenograft mice; assay: in vivo antitumor study, MV-4–11 xenograft mouse model; conditions: for effect on body weight after 20 days (in words): 90% confidence level vs vehicle
[7] = tested on: RS4;11 cells; assay: CCK-8 cell viability; assay type: cell-based; conditions: Homo sapiens, RS4-11, 48 h, read-out: cytotoxicity (IC50) RS4;11
[8] = tested on: HL-60 cells; assay: CCK-8 cell viability; assay type: cell-based; conditions: Homo sapiens, HL-60, 48 h, read-out: cytotoxicity (IC50) HL-60
[9] = tested on: HeLa cells; assay: CCK-8 cell viability; assay type: cell-based; conditions: Homo sapiens, 48 h, read-out: cytotoxicity (IC50) HeLa
[10] = tested on: MV-4–11 cells; assay: kinetics study in cells; assay type: in vitro ADME; conditions: GQN-B37-Me given to MV-4–11 cells at 40 μM, monitored over 8 h
[11] = molecular target: BCL-2 (Homo sapiens, UniProt P10415); assay: fluorescence polarization; conditions: FP assay
Chain of BCL-2 (P10415 1-207): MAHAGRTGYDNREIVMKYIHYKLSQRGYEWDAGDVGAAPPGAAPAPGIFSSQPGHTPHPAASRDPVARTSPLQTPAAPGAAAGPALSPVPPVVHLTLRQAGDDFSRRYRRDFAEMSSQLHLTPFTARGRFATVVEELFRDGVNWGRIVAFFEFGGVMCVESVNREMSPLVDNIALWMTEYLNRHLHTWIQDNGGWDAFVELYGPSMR

[12] = molecular target: BCL-xL (Homo sapiens, UniProt Q07817); assay: fluorescence polarization; conditions: FP assay, tested up to 100 μM
Chain of BCL-xL (Q07817 45-233): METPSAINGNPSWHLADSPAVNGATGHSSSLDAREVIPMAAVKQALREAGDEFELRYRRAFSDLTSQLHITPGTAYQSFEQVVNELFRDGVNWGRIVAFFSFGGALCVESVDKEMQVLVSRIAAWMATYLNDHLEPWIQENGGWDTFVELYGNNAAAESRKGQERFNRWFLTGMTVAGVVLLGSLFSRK

[13] = tested on: PARP and caspase-3 in H929 cells; assay: Western blot of PARP and caspase-3 cleavage; assay type: cell-based; conditions: 5 to 40 μM, 24 h
[14] = molecular target: MCL-1/BIM interaction in H929 cells (Homo sapiens, UniProt Q07820); assay: coimmunoprecipitation; assay type: cell-based; conditions: 10 μM, 10 h
Chain of MCL-1/BIM interaction in H929 cells (Q07820 whole entry): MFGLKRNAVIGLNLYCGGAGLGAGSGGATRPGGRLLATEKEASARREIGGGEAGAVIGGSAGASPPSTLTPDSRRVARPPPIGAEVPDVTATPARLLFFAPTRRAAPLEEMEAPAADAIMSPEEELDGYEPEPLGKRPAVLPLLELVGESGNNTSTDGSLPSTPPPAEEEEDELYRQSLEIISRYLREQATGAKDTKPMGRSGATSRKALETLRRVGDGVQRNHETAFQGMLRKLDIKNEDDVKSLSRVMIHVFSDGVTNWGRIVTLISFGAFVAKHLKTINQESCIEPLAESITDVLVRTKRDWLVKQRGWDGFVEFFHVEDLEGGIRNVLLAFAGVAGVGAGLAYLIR

[15] = stability in GSH; assay type: in vitro ADME; conditions: exposure to GSH for up to 2 h
[16] = stability in liver microsomes; assay type: in vitro ADME; conditions: human
[17] = stability in liver microsomes; assay type: in vitro ADME; conditions: dog, pooled dog liver microsomes
[18] = stability in liver microsomes; assay type: in vitro ADME; conditions: rat, pooled rat liver microsomes
[19] = stability in liver microsomes; assay type: in vitro ADME; conditions: monkey, pooled monkey liver microsomes
[20] = tested on: MV-4–11 xenograft mice; assay type: in vivo, mouse; conditions: after 20 days treatment

Chain of MCL-1 (Q07820 152-327): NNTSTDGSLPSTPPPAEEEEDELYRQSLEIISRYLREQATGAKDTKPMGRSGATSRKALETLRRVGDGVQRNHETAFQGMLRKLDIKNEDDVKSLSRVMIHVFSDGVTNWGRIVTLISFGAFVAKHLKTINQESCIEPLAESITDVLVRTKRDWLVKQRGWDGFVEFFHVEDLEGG

| SMILES | IC50 [2] [µM] | IC50 [3] [µM] | IC50 at 48 h [4] [µM] | IC50 [7] [µM] | IC50 [8] [µM] | IC50 [9] [µM] | further results |
| --- | --- | --- | --- | --- | --- | --- | --- |
| CC1(C)CCC(CN2CCN(c3ccc(C(=O)NS(=O)(=O)c4ccc(NCC5CCOCC5)c([N+](=O)[O-])c4)c(Oc4cnc5[nH]ccc5c4)c3)CC2)=C(c2ccc(Cl)cc2)C1 [ABT-199, reference compound] |  |  |  |  |  |  | binding to MCL-1 (in words) ([1]; FP assay): no obvious binding |
| Cc1c2c(nn1C)CSCc1cc(n(C)n1)CSc1cc(c3ccccc3c1)OCCCc1c(C(=O)O)n(C)c3c-2c(Cl)ccc13 [AZD5991, reference compound] | 0.05 ± 0.01 | < 0.01 | > 20 |  |  |  | cells in quadrant Q3-2 (late apoptosis, annexin V (+) and PI (+)) ([5]; 1 μM, MV-4–11 cells): ~75%; tumor growth inhibition on day 20 ([6]; 10 mg/kg i.p. every 2 days for 20 days): 56%; effect on body weight after 20 days (in words) ([6]; 10 mg/kg i.p. every 2 days): caused significant body weight loss |
| O=C(/C=C/c1cn(-c2ccccc2)nc1-c1ccc2ccccc2c1)N[C@@H](Cc1c[nH]c2ccccc12)C(=O)O [GQN-B18-E, (E)-(3-(3-(Naphthalen-2-yl)-1-phenyl-1H-pyrazol-4-yl)acryloyl)-L-tryptophan] | > 50 | > 50 | > 20 | > 20 | > 20 | > 50 |  |
| COC(=O)[C@H](Cc1c[nH]c2ccccc12)NC(=O)/C=C/c1cn(-c2ccccc2)nc1-c1ccc2ccccc2c1 [GQN-B18-Me, Methyl-(E)-(3-(3-(naphthalen-2-yl)-1-phenyl-1H-pyrazol-4-yl)acryloyl)-L-tryptophanate] | 7.97 ± 1.01 | > 20 | > 20 | > 20 | > 20 | > 20 | binding to MCL-1 (in words) ([1]; FP assay): totally abolished; also recorded: complete loss of binding |
| O=C(/C=C/c1cn(-c2cccc(Cl)c2)nc1-c1ccc(C2CCCCC2)cc1)N[C@@H](Cc1c[nH]c2ccccc12)C(=O)O [GQN-B33-E, (E)-(3-(1-(3-Chlorophenyl)-3-(4-cyclohexylphenyl)-1H-pyrazol-4-yl)acryloyl)-L-tryptophan] | > 50 | > 20 | > 20 | > 20 | > 50 | > 50 |  |
| COC(=O)[C@H](Cc1c[nH]c2ccccc12)NC(=O)/C=C/c1cn(-c2cccc(Cl)c2)nc1-c1ccc(C2CCCCC2)cc1 [GQN-B33-Me, Methyl-(E)-(3-(1-(3-chlorophenyl)-3-(4-cyclohexylphenyl)-1H-pyrazol-4-yl)acryloyl)-L-tryptophanate] | 4.64 ± 0.01 | > 20 | > 20 | > 20 | > 50 | > 50 |  |
| Nc1ccc(-c2nn(-c3cccc(Cl)c3)cc2/C=C/C(=O)N[C@@H](Cc2c[nH]c3ccccc23)C(=O)O)cc1 [GQN-B35-E, (E)-(3-(3-(4-Aminophenyl)-1-(3-chlorophenyl)-1H-pyrazol-4-yl)acryloyl)-L-tryptophan] | > 50 | > 50 | > 20 | > 50 | > 50 | > 50 |  |
| COC(=O)[C@H](Cc1c[nH]c2ccccc12)NC(=O)/C=C/c1cn(-c2cccc(Cl)c2)nc1-c1ccc(N)cc1 [GQN-B35-Me, Methyl-(E)-(3-(3-(4-aminophenyl)-1-(3-chlorophenyl)-1H-pyrazol-4-yl)acryloyl)-L-tryptophanate] | 3.89 ± 0.07 | 20.52 ± 0.12 | > 20 | > 20 | > 20 | > 50 |  |
| O=C(/C=C/c1cn(-c2cccc(Cl)c2)nc1-c1ccc(N2CCOCC2)cc1)N[C@@H](Cc1c[nH]c2ccccc12)C(=O)O [GQN-B36-E, (E)-(3-(1-(3-Chlorophenyl)-3-(4-morpholinophenyl)-1H-pyrazol-4-yl)acryloyl)-L-tryptophan] | > 50 | > 50 | > 20 | > 50 | > 50 | > 50 |  |
| COC(=O)[C@H](Cc1c[nH]c2ccccc12)NC(=O)/C=C/c1cn(-c2cccc(Cl)c2)nc1-c1ccc(N2CCOCC2)cc1 [GQN-B36-Me, Methyl-(E)-(3-(1-(3-chlorophenyl)-3-(4-morpholinophenyl)-1H-pyrazol-4-yl)acryloyl)-L-tryptophanate] | > 20 | > 20 | > 20 | > 20 | > 20 | > 50 |  |
| O=C(/C=C/c1cn(-c2cccc(Cl)c2)nc1-c1ccc(O)cc1)N[C@@H](Cc1c[nH]c2ccccc12)C(=O)O [GQN-B37-E, (E)-(3-(1-(3-Chlorophenyl)-3-(4-hydroxyphenyl)-1H-pyrazol-4-yl)acryloyl)-L-tryptophan] | > 50 | > 50 | > 20 | > 50 | > 50 | > 50 | time at which intracellular GQN-B37-E reached a peak [10]: 3 h; ligand efficiency (LE) ([1]; binding energy divided by the number of heavy atoms, MCL-1): 0.22 kcal/mol; binding to BCL-2 (in words) ([11]; tested up to 100 μM): without apparent binding; binding to BCL-XL (in words) [12]: without apparent binding |
| COC(=O)[C@H](Cc1c[nH]c2ccccc12)NC(=O)/C=C/c1cn(-c2cccc(Cl)c2)nc1-c1ccc(O)cc1 [GQN-B37-Me, Methyl-(E)-(3-(1-(3-chlorophenyl)-3-(4-hydroxyphenyl)-1H-pyrazol-4-yl)acryloyl)-L-tryptophanate] | 3.71 ± 0.33 | 5.57 ± 0.09 | > 20 | 15.9 ± 0.98 | > 20 | > 20 | induction of late apoptosis (in words) ([5]; doses ranging from 1 to 40 μM): induced late apoptosis in a clear dose-dependent manner; cleavage of full-length PARP (116 to 89 kDa) [13]: dose-dependent cleavage; disruption of the MCL-1/BIM interaction [14]: disrupts the MCL-1/BIM interaction considerably; tumor growth inhibition on day 20 ([6]; 12.5 mg/kg i.p. every 2 days for 20 days): 30%; effect on body weight after 20 days (in words) ([6]; 12.5 mg/kg i.p. every 2 days): did not cause significant body weight loss; tumor growth inhibition on day 20 ([6]; 50 mg/kg i.p. every 2 days for 20 days): 43%; effect on body weight after 20 days (in words) ([6]; 50 mg/kg i.p. every 2 days): affected body weight; stability following incubation with GSH (in words) [15]: basically intact; half-life at 1.4 μM [16]: 0.77 h; half-life at 1.4 μM [17]: 1.93 h; half-life at 1.4 μM [18]: 1.92 h; half-life at 1.4 μM [19]: 0.58 h; lesions in liver, kidney and heart (HE staining) ([20]; 12.5 and 50 mg/kg): no evidence of lesions; necrosis of tumor tissues (HE staining) ([20]; 12.5 and 50 mg/kg): dose-dependent necrosis of tumor tissues; level of proliferation in tumor tissues (Ki-67) ([20]; compared to the blank group): significantly reduced; binding to MCL-1 (in words) ([1]; FP assay): complete loss of binding |
| O=C(/C=C\c1cn(-c2ccccc2)nc1-c1ccc2ccccc2c1)Nc1ccc(C(=O)O)cc1 [LC126, (Z)-4-(3-(3-(Naphthalen-2-yl)-1-phenyl-1H-pyrazol-4-yl)acrylamido)benzoic Acid] |  |  |  |  |  |  | Ki ([1]; Ki for MCL-1 (text and Figure 2), FP assay): 13 µM and ~10 µM; Ki ([11]; Ki for BCL-2 (text and Figure 2)): 10 µM and ~10 µM |
